From US20240398793A1, “Methods of Treating Lymphedema” (Celltaxis, LLC, priority 2021, published 2024)
Like-named read-outs stand apart in the source and are kept apart here.

Columns and labels:
[1] = Most common treatment emergent adverse events, safety population
[2] = biological target: LTA4H epoxide hydrolase (Homo sapiens (Human), UniProt P09960); conditions: read-out: LTA4H epoxide hydrolase potency; Bhatt et al. (2017); cited from earlier work
[3] = Preclinical phototoxicity studies
[4] = test system: LTB4 production in blood; assay: Human pharmacodynamic studies, inhibition of LTB4 production in blood; type: in vivo
[5] = test system: patients with cystic fibrosis; assay: Phase 2 study in adult CF patients, 48 weeks, efficacy; type: in vivo, human; conditions: for rate of pulmonary exacerbations: 48 weeks of treatment
[6] = test system: neutrophil swarming; assay: Neutrophil swarming in vitro in response to CF sputum factors; type: cell-based; conditions: 48 ng/mL; factors present in human CF sputum
[7] = Nonclinical pharmacokinetics and mass balance studies; type: in vivo, animals
[8] = biological target: P-glycoprotein (P-gp) (Homo sapiens (Human), UniProt P08183); assay: In vitro drug interaction study, P-gp; type: in vitro ADME
[9] = Human pharmacokinetics after oral administration; type: in vivo; conditions: for half-life / Tmax: human, plasma; for half-life: oral, read-out: T1/2 (elimination half-life); for Tmax: po

P-glycoprotein (P-gp), sequence (P08183 whole entry): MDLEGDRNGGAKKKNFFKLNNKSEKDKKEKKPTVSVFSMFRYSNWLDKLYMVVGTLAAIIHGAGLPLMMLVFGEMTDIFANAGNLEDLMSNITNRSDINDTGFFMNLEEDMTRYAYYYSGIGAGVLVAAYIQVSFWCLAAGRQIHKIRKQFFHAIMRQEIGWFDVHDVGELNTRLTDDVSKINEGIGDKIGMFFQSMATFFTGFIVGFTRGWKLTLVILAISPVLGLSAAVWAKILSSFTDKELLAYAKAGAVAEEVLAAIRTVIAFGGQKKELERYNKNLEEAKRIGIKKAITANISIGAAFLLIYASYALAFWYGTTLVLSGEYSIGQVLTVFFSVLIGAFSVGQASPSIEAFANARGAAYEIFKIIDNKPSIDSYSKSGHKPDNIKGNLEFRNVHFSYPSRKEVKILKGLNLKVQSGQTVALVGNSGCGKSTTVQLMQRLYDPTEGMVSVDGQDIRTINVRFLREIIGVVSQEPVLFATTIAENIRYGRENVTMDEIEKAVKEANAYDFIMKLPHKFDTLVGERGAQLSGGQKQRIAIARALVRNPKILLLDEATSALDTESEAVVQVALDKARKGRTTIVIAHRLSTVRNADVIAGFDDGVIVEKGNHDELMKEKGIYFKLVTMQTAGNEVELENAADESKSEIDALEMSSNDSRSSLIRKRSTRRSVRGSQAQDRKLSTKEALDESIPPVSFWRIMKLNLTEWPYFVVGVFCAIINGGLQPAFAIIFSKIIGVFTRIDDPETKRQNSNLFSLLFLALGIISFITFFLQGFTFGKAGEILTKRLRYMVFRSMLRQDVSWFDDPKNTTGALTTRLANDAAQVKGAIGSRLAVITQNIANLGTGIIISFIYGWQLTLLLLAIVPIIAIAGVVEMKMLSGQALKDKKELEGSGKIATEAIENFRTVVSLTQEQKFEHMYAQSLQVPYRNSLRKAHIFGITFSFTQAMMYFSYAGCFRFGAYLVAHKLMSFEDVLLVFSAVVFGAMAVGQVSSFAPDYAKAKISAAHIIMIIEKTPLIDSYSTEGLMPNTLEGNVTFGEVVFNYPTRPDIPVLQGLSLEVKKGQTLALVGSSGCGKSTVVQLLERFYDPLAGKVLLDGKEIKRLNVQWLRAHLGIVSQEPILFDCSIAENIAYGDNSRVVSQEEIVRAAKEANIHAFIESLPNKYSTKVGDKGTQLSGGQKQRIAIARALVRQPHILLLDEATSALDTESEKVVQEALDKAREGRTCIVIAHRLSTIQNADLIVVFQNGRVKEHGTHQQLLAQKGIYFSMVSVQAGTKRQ
LTA4H epoxide hydrolase, sequence (P09960 whole entry): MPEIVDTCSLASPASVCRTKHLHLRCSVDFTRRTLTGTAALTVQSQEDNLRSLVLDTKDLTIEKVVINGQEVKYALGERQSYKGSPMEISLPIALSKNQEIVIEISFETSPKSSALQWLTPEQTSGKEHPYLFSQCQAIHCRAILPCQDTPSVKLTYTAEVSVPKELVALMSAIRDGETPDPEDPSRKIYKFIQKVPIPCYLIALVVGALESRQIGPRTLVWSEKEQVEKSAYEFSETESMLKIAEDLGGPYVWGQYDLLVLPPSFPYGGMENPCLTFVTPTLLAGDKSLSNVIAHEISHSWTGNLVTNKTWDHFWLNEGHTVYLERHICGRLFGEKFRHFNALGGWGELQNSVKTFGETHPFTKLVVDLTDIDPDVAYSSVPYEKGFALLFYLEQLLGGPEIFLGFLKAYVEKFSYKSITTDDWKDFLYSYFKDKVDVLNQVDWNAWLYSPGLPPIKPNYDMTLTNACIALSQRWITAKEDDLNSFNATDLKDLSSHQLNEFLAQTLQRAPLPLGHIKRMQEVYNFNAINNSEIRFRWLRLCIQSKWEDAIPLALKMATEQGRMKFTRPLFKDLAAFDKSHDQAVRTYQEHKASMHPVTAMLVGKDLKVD

For `O=C(O)c1ccc(CN2C[C@@H]3C[C@H]2CN3Cc2ccc(Oc3ccc(-c4ncco4)cc3)cc2)cc1` [Acebilustat, 4-{[(1S,4S)-5-({4-[4-oxazol-2-yl-phenoxy]phenyl}methyl)-2,5-diazabicyclo[2.2.1]heptan-2-yl]methyl}benzoic acid], the “Abdominal pain TEAE, %” value ([1]; 50 mg (N = 67)) was “(4.5%)”, the “Abdominal pain upper TEAE, %” value ([1]; 50 mg (N = 67)) was “(10.4%)” and the “Arthralgia TEAE, %” value ([1]; 50 mg (N = 67)) was “(4.5%)”. For the same compound, the “Back pain TEAE, %” value ([1]; 50 mg (N = 67)) was “(6.0%)”, the “Chest discomfort TEAE, %” value ([1]; 50 mg (N = 67)) was “(4.5%)” and the “Constipation TEAE, %” value ([1]; 50 mg (N = 67)) was “(6.0%)”. The “Cough TEAE, %” value ([1]; 50 mg (N = 67)) was “(40.3%)”, the “Diarrhoea TEAE, %” value ([1]; 50 mg (N = 67)) was “(13.4%)” and the “Distal intestinal obstruction syndrome TEAE, %” value ([1]; 50 mg (N = 67)) was “(6.0%)”. For the same compound, the “Dyspnoea TEAE, %” value ([1]; 50 mg (N = 67)) was “(9.0%)”, the “Epistaxis TEAE, %” value ([1]; 50 mg (N = 67)) was “(6.0%)” and the “Fatigue TEAE, %” value ([1]; 50 mg (N = 67)) was “(13.4%)”. For the same compound, the “Forced expiratory volume decreased TEAE, %” value ([1]; 50 mg (N = 67)) was “(6.0%)”, the “Gastroenteritis TEAE, %” value ([1]; 50 mg (N = 67)) was “(1.5%)” and the “Gastrointestinal disorders TEAE, %” value ([1]; 50 mg (N = 67)) was “(40.3%)”. For the same compound, the “General disorders and administration site conditions TEAE, %” value ([1]; 50 mg (N = 67)) was “(35.8%)”, the “Haemoptysis TEAE, %” value ([1]; 50 mg (N = 67)) was “(25.4%)” and the “Headache TEAE, %” value ([1]; 50 mg (N = 67)) was “(23.9%)”. For the same compound, the “Infections and infestations TEAE, %” value ([1]; 50 mg (N = 67)) was “(88.1%)”, the “Influenza TEAE, %” value ([1]; 50 mg (N = 67)) was “(4.5%)” and the “Investigations TEAE, %” value ([1]; 50 mg (N = 67)) was “(29.9%)”. For the same compound, the “Musculoskeletal and connective tissue disorders TEAE, %” value ([1]; 50 mg (N = 67)) was “(19.4%)”, the “Nasopharyngitis TEAE, %” value ([1]; 50 mg (N = 67)) was “(16.4%)” and the “Nausea TEAE, %” value ([1]; 50 mg (N = 67)) was “(7.5%)”. For the same compound, the “Nervous system disorders TEAE, %” value ([1]; 50 mg (N = 67)) was “(32.8%)”, the “No. of subjects with at least one TEAE, %” value ([1]; 50 mg (N = 67)) was “(100.0%)” and the “Oropharyngeal pain TEAE, %” value ([1]; 50 mg (N = 67)) was “(10.4%)”. The “Paranasal sinus hypersecretion TEAE, %” value ([1]; 50 mg (N = 67)) was “(7.5%)”, the “Pyrexia TEAE, %” value ([1]; 50 mg (N = 67)) was “(9.0%)” and the “Rales TEAE, %” value ([1]; 50 mg (N = 67)) was “(1.5%)”. For the same compound, the “Rash TEAE, %” value ([1]; 50 mg (N = 67)) was “(4.5%)”, the “Respiratory, thoracic and mediastinal disorders TEAE, %” value ([1]; 50 mg (N = 67)) was “(70.1%)” and the “Rhinitis TEAE, %” value ([1]; 50 mg (N = 67)) was “(6.0%)”. For the same compound, the “Rhinorrhoea TEAE, %” value ([1]; 50 mg (N = 67)) was “(9.0%)”, the “Sinusitis TEAE, %” value ([1]; 50 mg (N = 67)) was “(4.5%)” and the “Skin and subcutaneous tissue disorders TEAE, %” value ([1]; 50 mg (N = 67)) was “(11.9%)”. The “Sputum abnormal TEAE, %” value ([1]; 50 mg (N = 67)) was “(6.0%)”, the “Sputum increased TEAE, %” value ([1]; 50 mg (N = 67)) was “(19.4%)” and the “Abdominal pain TEAE, %” value ([1]; 100 mg (N = 66)) was “(6.1%)”. For the same compound, the “Abdominal pain upper TEAE, %” value ([1]; 100 mg (N = 66)) was “(4.5%)”, the “Alanine aminotransferase increased TEAE, %” value ([1]; 100 mg (N = 66)) was “(6.1%)” and the “Arthralgia TEAE, %” value ([1]; 100 mg (N = 66)) was “(7.6%)”. For the same compound, the “Back pain TEAE, %” value ([1]; 100 mg (N = 66)) was “(1.5%)”, the “Chest discomfort TEAE, %” value ([1]; 100 mg (N = 66)) was “(12.1%)” and the “Constipation TEAE, %” value ([1]; 100 mg (N = 66)) was “(1.5%)”. For the same compound, the “Cough TEAE, %” value ([1]; 100 mg (N = 66)) was “(43.9%)”, the “Diarrhoea TEAE, %” value ([1]; 100 mg (N = 66)) was “(7.6%)” and the “Distal intestinal obstruction syndrome TEAE, %” value ([1]; 100 mg (N = 66)) was “(3.0%)”. For the same compound, the “Dyspnoea TEAE, %” value ([1]; 100 mg (N = 66)) was “(7.6%)”, the “Epistaxis TEAE, %” value ([1]; 100 mg (N = 66)) was “(4.5%)” and the “Fatigue TEAE, %” value ([1]; 100 mg (N = 66)) was “(13.6%)”. The “Forced expiratory volume decreased TEAE, %” value ([1]; 100 mg (N = 66)) was “(7.6%)”, the “Gastroenteritis TEAE, %” value ([1]; 100 mg (N = 66)) was “(6.1%)” and the “Gastrointestinal disorders TEAE, %” value ([1]; 100 mg (N = 66)) was “(30.3%)”. The “General disorders and administration site conditions TEAE, %” value ([1]; 100 mg (N = 66)) was “(36.4%)”, the “Haemoptysis TEAE, %” value ([1]; 100 mg (N = 66)) was “(18.2%)” and the “Headache TEAE, %” value ([1]; 100 mg (N = 66)) was “(13.6%)”. For the same compound, the “Infections and infestations TEAE, %” value ([1]; 100 mg (N = 66)) was “(90.9%)”, the “Influenza TEAE, %” value ([1]; 100 mg (N = 66)) was “(7.6%)” and the “Investigations TEAE, %” value ([1]; 100 mg (N = 66)) was “(34.8%)”. For the same compound, the “Musculoskeletal and connective tissue disorders TEAE, %” value ([1]; 100 mg (N = 66)) was “(16.7%)”, the “Nasopharyngitis TEAE, %” value ([1]; 100 mg (N = 66)) was “(21.2%)” and the “Nausea TEAE, %” value ([1]; 100 mg (N = 66)) was “(12.1%)”. The “Nervous system disorders TEAE, %” value ([1]; 100 mg (N = 66)) was “(22.7%)”, the “No. of subjects with at least one TEAE, %” value ([1]; 100 mg (N = 66)) was “(100.0%)” and the “Oropharyngeal pain TEAE, %” value ([1]; 100 mg (N = 66)) was “(13.6%)”. For the same compound, the “Pyrexia TEAE, %” value ([1]; 100 mg (N = 66)) was “(12.1%)”, the “Rales TEAE, %” value ([1]; 100 mg (N = 66)) was “(6.1%)” and the “Rash TEAE, %” value ([1]; 100 mg (N = 66)) was “(9.1%)”. For the same compound, the “Respiratory, thoracic and mediastinal disorders TEAE, %” value ([1]; 100 mg (N = 66)) was “(75.8%)”, the “Rhinitis TEAE, %” value ([1]; 100 mg (N = 66)) was “(4.5%)” and the “Rhinorrhoea TEAE, %” value ([1]; 100 mg (N = 66)) was “(7.6%)”. For the same compound, the “Sinusitis TEAE, %” value ([1]; 100 mg (N = 66)) was “(10.6%)”, the “Skin and subcutaneous tissue disorders TEAE, %” value ([1]; 100 mg (N = 66)) was “(24.2%)” and the “Sputum increased TEAE, %” value ([1]; 100 mg (N = 66)) was “(10.6%)”. The IC50 [2] was 12 nM, the phototoxic effects [3] was “no potential for phototoxic effects” and the inhibition at 50 mg ([4]; 50 mg dose, human pharmacodynamic studies) was no less than 63%. The inhibition at 100 mg ([4]; 100 mg dose, human pharmacodynamic studies) was no less than 74%, the inhibition at 150 mg ([4]; 150 mg dose, human pharmacodynamic studies) was no less than 82% and the inhibition at 200 mg ([4]; 200 mg dose, human pharmacodynamic studies) was no less than 85%. The EC50 ([4]; Homo sapiens, in vivo, humans, estimated) was 0.093 µg/mL, the EC50 ([4]; human clinical PD studies, blood) was 190 nM and the “EC50 for inhibition of LTB4 production” value ([4]; in vivo, humans, estimated) was 93 ng/mL. For the same compound, the “engagement of the pharmacologic mechanism in blood over 24-hour dosing interval” value ([4]; once-daily oral doses of 50 mg and above, phase 1 studies) was “significant engagement of the pharmacologic mechanism”, the “change from baseline in percent predicted FEV1 versus placebo” value ([5]; 48-week Phase 2 CF study, primary endpoint) was “no statistically significant difference” and the “time to first pulmonary exacerbation” value ([5]; CF patients, 48 weeks, secondary efficacy analysis) was “concordant numerical benefit”. The risk of infection ([5]; adult CF patients, 48 weeks) was “no evidence of increased risk of infection”, the “rate of pulmonary exacerbations” value ([5]; adult CF patients) was “concordant numerical benefit” and the “rate of pulmonary exacerbations” value ([5]; adult CF patients, listed as acebilustat) was “showed promise in reducing the rate of pulmonary exacerbations”. For the same compound, the “reduction of neutrophil swarming” value [6] was 80%, the “accumulation and retention in pigmented tissues (uveal tract)” value ([7]; mass balance studies in animals) was “some potential for accumulation and retention” and the route of elimination ([7]; nonclinical) was “primarily via liver-bile-feces”. The “total drug excreted via kidneys” value ([7]; nonclinical) was “less than 3%”, the “drug interactions with substrates of P-gp” value [8] was “potential for drug interactions” and the half-life ([9]; CF patients) was 480 to 540 min. It also gave a half-life ([9]; healthy volunteers) of 900 to 1080 min, a Tmax ([9]; humans, fasting) of roughly 1.5 h and a Tmax ([9]; humans, with a high-fat meal) of 5 to 6 h. For the same compound, the “exposures (Cmax, AUC), healthy volunteers versus CF patients” value ([9]; humans) was “did not vary appreciably”, the “time to steady state exposure” value ([9]; humans, repeated dosing) was 7 days and the “effect of larger body size and concomitant CFTR modulator therapies on clearance” value ([9]; population PK, Phase 2 CF trial) was “increase clearance”.
